# Results reported in ChEMBL document CHEMBL1250444, “Nitric oxide activates TRP channels by cysteine S-nitrosylation” (Nat Chem Biol, 2006).
# Changes are numbered by the printed parent chain. Calls of active or inactive are those of the source. The calls are words filed in the database; no cut-off is given here.
# Key:
# HEK293 = assay: Induction of rat TRPV1 Cys616 mutant S-nitrosylation expressed in HEK cells assessed as increase in Ca2+ level from extracellular space at 0.1 to 1 mM; assay type: cell-based
# [1] = biological target: T1, Short transient receptor potential channel 5 (Homo sapiens) (UniProt Q9UL62); assay: Induction of S-nitrosylation of TRPC5 in HEK cells assessed as increase in Ca2+ level from extracellular space at 1 mM in presence of ascorbic acid; assay type: cell-based; conditions: HEK293
# T1 sequence (whole entry): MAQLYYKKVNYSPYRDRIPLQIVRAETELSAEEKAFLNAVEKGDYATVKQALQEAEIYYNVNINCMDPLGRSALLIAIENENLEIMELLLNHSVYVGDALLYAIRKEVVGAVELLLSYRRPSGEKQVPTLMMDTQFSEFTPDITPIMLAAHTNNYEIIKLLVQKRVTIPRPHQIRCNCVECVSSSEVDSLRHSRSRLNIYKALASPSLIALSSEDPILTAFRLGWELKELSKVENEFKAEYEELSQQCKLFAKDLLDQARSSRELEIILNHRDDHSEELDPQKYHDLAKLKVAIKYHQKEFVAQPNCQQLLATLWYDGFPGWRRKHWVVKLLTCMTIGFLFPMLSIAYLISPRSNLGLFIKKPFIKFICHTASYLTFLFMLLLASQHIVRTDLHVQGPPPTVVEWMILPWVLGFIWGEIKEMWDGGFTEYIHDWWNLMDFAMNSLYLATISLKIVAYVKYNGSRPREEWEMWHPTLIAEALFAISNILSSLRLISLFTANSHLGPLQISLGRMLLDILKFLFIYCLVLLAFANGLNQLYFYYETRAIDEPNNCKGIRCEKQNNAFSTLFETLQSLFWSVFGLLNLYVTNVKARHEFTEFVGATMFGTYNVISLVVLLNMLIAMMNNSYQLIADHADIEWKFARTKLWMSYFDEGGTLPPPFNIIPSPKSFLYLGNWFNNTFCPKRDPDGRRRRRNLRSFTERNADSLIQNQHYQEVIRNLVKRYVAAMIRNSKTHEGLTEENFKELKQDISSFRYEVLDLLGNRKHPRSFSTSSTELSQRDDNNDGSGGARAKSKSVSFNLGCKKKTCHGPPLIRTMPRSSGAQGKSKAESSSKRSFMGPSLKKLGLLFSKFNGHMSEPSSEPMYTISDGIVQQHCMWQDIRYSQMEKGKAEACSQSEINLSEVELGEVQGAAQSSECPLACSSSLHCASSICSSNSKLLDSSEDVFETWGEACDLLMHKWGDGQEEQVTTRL
# [2] = biological target: T1, Short transient receptor potential channel 5 (Homo sapiens); assay: Induction of S-nitrosylation of TRPC5 in HEK cells assessed as increase in Ca2+ level from extracellular space at 300 uM; assay type: cell-based; conditions: HEK293
# [3] = test system: T2, Short transient receptor potential channel 5 (Homo sapiens), Q9UL62 [C553S]; assay: Decrease in TRPC5 C553S mutant S-nitrosylation in HEK cells assessed as inhibition of incorporation of DTNB-2Bio at 300 uM relative to control; assay type: cell-based; conditions: HEK293
# T2 sequence (whole entry): T1 sequence (whole entry) with C553S
# [4] = biological target: T1, Short transient receptor potential channel 5 (Homo sapiens); assay: Induction of S-nitrosylation of TRPC5 in HEK cells assessed as increase in Ca2+ level from extracellular space at 10 uM; assay type: cell-based; conditions: HEK293
# [5] = biological target: T1, Short transient receptor potential channel 5 (Homo sapiens); assay: Activation of TRPC5 expressed in BAEC expressing TRPC5 siRNA assessed as increase in Ca2+ level from extracellular space at 300 uM
# [6] = biological target: Transient receptor potential cation channel subfamily M member 2 (Homo sapiens) (UniProt O94759); assay: Induction of TRPM2 S-nitrosylation in HEK cells assessed as increase in Ca2+ level from extracellular space at 30 uM; assay type: cell-based; conditions: HEK293
# [7] = biological target: Transient receptor potential cation channel subfamily V member 1 (Rattus norvegicus) (UniProt O35433); assay: Activation of rat TRPV1 expressed in HEK cells assessed as increase in Ca2+ level from extracellular space at 10 uM; assay type: cell-based; conditions: HEK293
# Transient receptor potential cation channel subfamily V member 1 (Rattus norvegicus), sequence (O35433 whole entry): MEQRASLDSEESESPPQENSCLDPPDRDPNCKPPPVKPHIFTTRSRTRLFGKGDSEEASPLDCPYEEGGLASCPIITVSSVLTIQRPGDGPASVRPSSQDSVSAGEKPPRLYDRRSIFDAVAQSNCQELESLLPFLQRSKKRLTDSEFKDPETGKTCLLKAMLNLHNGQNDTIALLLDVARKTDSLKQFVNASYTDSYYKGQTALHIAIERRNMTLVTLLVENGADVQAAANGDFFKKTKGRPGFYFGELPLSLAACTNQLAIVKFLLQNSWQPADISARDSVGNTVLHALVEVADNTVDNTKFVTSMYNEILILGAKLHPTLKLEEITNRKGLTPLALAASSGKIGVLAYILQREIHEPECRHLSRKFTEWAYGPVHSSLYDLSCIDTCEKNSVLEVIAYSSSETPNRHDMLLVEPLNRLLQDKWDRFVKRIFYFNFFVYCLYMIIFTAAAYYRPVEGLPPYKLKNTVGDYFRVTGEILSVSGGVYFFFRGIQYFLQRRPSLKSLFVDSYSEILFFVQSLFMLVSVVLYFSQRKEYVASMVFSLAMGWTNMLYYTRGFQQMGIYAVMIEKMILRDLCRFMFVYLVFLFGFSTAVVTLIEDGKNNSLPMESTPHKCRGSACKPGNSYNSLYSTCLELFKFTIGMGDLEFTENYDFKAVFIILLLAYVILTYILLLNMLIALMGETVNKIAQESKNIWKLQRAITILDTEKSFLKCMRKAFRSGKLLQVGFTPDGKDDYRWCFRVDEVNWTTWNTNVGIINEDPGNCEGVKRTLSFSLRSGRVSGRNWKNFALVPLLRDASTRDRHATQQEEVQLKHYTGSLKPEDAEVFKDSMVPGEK
# Transient receptor potential cation channel subfamily M member 2 (Homo sapiens), sequence (O94759 whole entry): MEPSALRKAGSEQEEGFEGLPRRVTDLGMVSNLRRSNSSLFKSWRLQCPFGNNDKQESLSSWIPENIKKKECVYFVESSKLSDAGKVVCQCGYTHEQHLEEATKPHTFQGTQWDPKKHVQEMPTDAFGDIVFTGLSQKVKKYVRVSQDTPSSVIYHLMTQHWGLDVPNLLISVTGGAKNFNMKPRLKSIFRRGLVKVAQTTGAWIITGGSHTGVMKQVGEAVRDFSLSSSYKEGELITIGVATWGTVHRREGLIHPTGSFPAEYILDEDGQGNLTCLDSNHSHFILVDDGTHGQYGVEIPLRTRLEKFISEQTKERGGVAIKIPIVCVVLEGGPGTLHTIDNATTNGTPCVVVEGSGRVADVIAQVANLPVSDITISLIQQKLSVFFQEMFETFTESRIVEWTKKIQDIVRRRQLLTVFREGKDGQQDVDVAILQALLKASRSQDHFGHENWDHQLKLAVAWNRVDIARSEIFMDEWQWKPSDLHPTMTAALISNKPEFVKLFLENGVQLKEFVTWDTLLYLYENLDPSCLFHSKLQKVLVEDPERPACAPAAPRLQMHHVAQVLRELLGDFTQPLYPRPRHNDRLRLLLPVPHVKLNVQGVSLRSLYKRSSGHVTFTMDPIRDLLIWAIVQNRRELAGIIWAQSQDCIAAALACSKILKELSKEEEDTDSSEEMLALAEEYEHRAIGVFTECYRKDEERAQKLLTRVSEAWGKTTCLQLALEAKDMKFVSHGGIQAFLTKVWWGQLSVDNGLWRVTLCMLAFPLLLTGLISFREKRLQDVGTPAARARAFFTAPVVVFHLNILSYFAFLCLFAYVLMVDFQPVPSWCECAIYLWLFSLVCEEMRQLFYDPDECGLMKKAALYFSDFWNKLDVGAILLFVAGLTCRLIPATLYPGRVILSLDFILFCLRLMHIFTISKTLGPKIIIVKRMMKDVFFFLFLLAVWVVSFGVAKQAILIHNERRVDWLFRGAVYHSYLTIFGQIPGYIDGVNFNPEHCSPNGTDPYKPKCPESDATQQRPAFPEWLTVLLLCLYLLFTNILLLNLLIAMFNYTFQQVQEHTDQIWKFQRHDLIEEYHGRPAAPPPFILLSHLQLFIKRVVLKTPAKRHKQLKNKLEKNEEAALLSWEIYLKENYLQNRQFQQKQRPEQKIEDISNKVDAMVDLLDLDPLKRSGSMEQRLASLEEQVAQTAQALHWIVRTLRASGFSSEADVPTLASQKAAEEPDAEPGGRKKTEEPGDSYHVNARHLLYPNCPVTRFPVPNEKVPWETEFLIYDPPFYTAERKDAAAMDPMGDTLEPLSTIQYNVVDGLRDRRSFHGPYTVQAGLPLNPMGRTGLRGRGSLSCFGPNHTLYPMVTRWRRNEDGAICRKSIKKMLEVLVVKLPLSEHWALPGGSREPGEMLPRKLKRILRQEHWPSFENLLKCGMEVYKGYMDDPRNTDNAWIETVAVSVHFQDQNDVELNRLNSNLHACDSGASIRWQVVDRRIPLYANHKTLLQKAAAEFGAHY
SMILES,Activity (HEK293),Activity [1],Activity [2],Activity [3],Activity [4],Activity [5],Activity [6],Activity [7]
CC(=O)N[C@@H](C(=O)O)C(C)(C)SN=O (racemic),inactive,inactive,Active,Active,Active,inactive,,
O=[N+]([O-])c1ccc(SSc2ccc([N+](=O)[O-])cn2)nc1,,,,,,,inactive,Active
